According to patent publication US6914045B2, “Glycopeptide antibiotics” (Wyeth Holdings Corporation, priority 2001, dated 2005):
In brackets after ≈: the same amount, converted by molar mass. Numbered stars: 1 amine (or outer) side, 2 acyl side, 3 side chain; on linkers, the order of the positions; unused ones are H or OH. Square brackets hold non-standard residues; d marks the D form. Peptide text beside a SMILES is read from it. * marks the point of attachment. ξ: configuration not given here. X6 = N=C1NCC(CC(N[*:1])C(=O)[*:2])N1C1OC(CO)C(O)C(O)C1O; ξEnduracididine(βξ-OH,4'ξ) = N=C1NCC(C(O)C(N)C(=O)O)N1; X2 = OCC1OC(OC2C(CO)OC(*)C(O)C2O)C(O)C(O)C1O; ξPhe(βξ-Me) = CC(c1ccccc1)C(N)C(=O)O

What was measured:
Test in all cases: in vitro antibacterial evaluation, MIC by broth dilution
Type in all cases: cell-based
[1] = test system: Staphylococcus sp.; settings: broth dilution, 18 hours at 35° C.
Outline: (§1)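 Step 1: dilute antibiotic across 64-0.06 μg/mL in Muller-Hinton II […]. Step 2: inoculate at 5×10^5 CFU/mL.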

[2] = test system: Streptococcus sp.; settings: broth dilution, 18 hours at 35° C.
Outline: as §1

[3] = test system: Escherichia coli; settings: 18 hours at 35° C.
Outline: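 Following National Committee for Clinical Laboratory Standards recommendations (M7-A2), susceptibility was measured by dilution in Muller-Hinton II […]. Bacteria were seeded at 5×10^5 CFU/mL against compound concentrations from 64 down to 0.06 μg/mL.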

[4] = test system: Enterococcus sp.; settings: broth dilution, 18 hours at 35° C.
Outline: as §1

MIC Coagulase Negative Staphylococcus (GC 4547) [1]: >128 µg/mL
MIC Coagulase Negative Staphylococcus (GC 4548) [1]: >128 µg/mL
MIC Coagulase Negative Staphylococcus (GC 4549) [1]: >128 µg/mL
MIC Coagulase Negative Staphylococcus (GC 4551) [1]: >128 µg/mL
MIC Staphylococcus aureus (ATCC 29213) [1]: >128 µg/mL
MIC Staphylococcus aureus (GC 1131) [1]: >128 µg/mL
MIC Staphylococcus aureus (GC 3051) [1]: >128 µg/mL
MIC Staphylococcus aureus (GC 3053) [1]: >128 µg/mL
MIC Staphylococcus aureus (GC 4541) [1]: >128 µg/mL
MIC Staphylococcus aureus (GC 4542) [1]: >128 µg/mL
MIC Staphylococcus aureus (GC 4544) [1]: >128 µg/mL
MIC Staphylococcus aureus (GC 4545) [1]: >128 µg/mL
MIC Staphylococcus aureus-SMITH (GC 4543) [1]: >128 µg/mL
MIC Staphylococcus aureus (ATCC 29213) ([1]; strain ATCC 29213): >128 µg/mL
MIC Staphylococcus aureus (GC 1131) ([1]; strain GC 1131): >128 µg/mL
MIC Staphylococcus aureus (GC 3051) ([1]; strain GC 3051): >128 µg/mL
MIC Staphylococcus aureus (GC 3053) ([1]; strain GC 3053): >128 µg/mL
MIC Staphylococcus aureus (GC 4541) ([1]; strain GC 4541): >128 µg/mL
MIC Staphylococcus aureus (GC 4542) ([1]; strain GC 4542): >128 µg/mL
MIC Staphylococcus aureus (GC 4544) ([1]; strain GC 4544): >128 µg/mL
MIC Staphylococcus aureus (GC 4545) ([1]; strain GC 4545): >128 µg/mL
MIC Coagulase Negative Staphylococcus (GC 4547) ([1]; strain GC 4547): >128 µg/mL
MIC Coagulase Negative Staphylococcus (GC 4548) ([1]; strain GC 4548): >128 µg/mL
MIC Coagulase Negative Staphylococcus (GC 4549) ([1]; strain GC 4549): >128 µg/mL
MIC Coagulase Negative Staphylococcus (GC 4551) ([1]; strain GC 4551): >128 µg/mL
MIC Staphylococcus aureus-SMITH (GC 4543) ([1]; strain SMITH GC 4543): >128 µg/mL
MIC Streptococcus pneumoniae (ATCC 6301) ([2]; strain ATCC 6301): >128 µg/mL
MIC Streptococcus pneumoniae (GC 1894) ([2]; strain GC 1894): 128 µg/mL (≈ 100 µM)
MIC Streptococcus pyogenes (GC 4563) ([2]; strain GC 4563): >128 µg/mL
MIC Streptococcus agalactiae (GC 4564) ([2]; strain GC 4564): >128 µg/mL
MIC Streptococcus pneumoniae (GC 4565) ([2]; strain GC 4565): >128 µg/mL
MIC Escherichia coli (ATCC 25922) ([3]; Escherichia coli (ATCC 25922)): >128 µg/mL
MIC Escherichia coli (GC 4559) ([3]; Escherichia coli (GC 4559)): >128 µg/mL
MIC Escherichia coli (GC 4560) ([3]; Escherichia coli (GC 4560)): >128 µg/mL
MIC Enterococcus avium (GC 4558) ([4]; Enterococcus avium (GC 4558)): 128 µg/mL (≈ 100 µM)
MIC Enterococcus faecalis (ATCC 29212) ([4]; Enterococcus faecalis (ATCC 29212)): >128 µg/mL
MIC Enterococcus faecalis (GC 4553) ([4]; Enterococcus faecalis (GC 4553)): >128 µg/mL
MIC Enterococcus faecalis (GC 4554) ([4]; Enterococcus faecalis (GC 4554)): >128 µg/mL
MIC Enterococcus faecalis (GC 6189) ([4]; Enterococcus faecalis (GC 6189)): >128 µg/mL
MIC Enterococcus faecium (GC 2243) ([4]; Enterococcus faecium (GC 2243)): >128 µg/mL
MIC Enterococcus faecium (GC 4556) ([4]; Enterococcus faecium (GC 4556)): >128 µg/mL
MIC Enterococcus faecium (GC 4557) ([4]; Enterococcus faecium (GC 4557)): 128 µg/mL (≈ 100 µM)
MIC Enterococcus faecalis (ATCC 29212) ([4]; strain ATCC 29212): >128 µg/mL
MIC Enterococcus faecalis (GC 2242) ([4]; strain GC 2242): >128 µg/mL
MIC Enterococcus faecium (GC 2243) ([4]; strain GC 2243): >128 µg/mL
MIC Enterococcus faecalis (GC 2691) ([4]; strain GC 2691): >128 µg/mL
MIC Enterococcus faecalis (GC 3059) ([4]; strain GC 3059): >128 µg/mL
MIC Enterococcus faecalis (GC 4552) ([4]; strain GC 4552): >128 µg/mL
MIC Enterococcus faecalis (GC 4553) ([4]; strain GC 4553): >128 µg/mL
MIC Enterococcus faecalis (GC 4554) ([4]; strain GC 4554): >128 µg/mL
MIC Enterococcus faecium (GC 4556) ([4]; strain GC 4556): >128 µg/mL
MIC Enterococcus faecium (GC 4557) ([4]; strain GC 4557): 128 µg/mL (≈ 100 µM)
MIC Enterococcus avium (GC 4558) ([4]; strain GC 4558): 128 µg/mL (≈ 100 µM)
MIC Enterococcus faecalis (GC 6189) ([4]; strain GC 6189): >128 µg/mL
Structure (SMILES): CC(c1ccccc1)C1NC(=O)CNC(=O)C(CO)NC(=O)C(CC2CNC(=N)N2C2OC(CO)C(O)C(O)C2O)NC(=O)C(C(O)C2CNC(=N)N2)NC(=O)C(Cc2ccc(OC3OC(CO)C(OC4OC(CO)C(O)C(O)C4O)C(O)C3O)cc2)NC1=O (stereo not drawn) [Example 284b, Cyclo[3-(3-hexopyranosyl-2-iminoimidazolidin-4-yl)-alanylserylglycl-β-methylphenylalanyl-O-(4-O-hexopyranosylhexopyranosyl)tyrosyl-3-(2-iminoimidazolidin-4-yl)seryl]] (cyclo(G[ξPhe(βξ-Me)]Y(X2)[ξEnduracididine(βξ-OH,4'ξ)][X6]S); configuration not given here)
MIC Staphylococcus haemolyticus (GC 4546) [1]: >128 µg/mL
MIC Staphylococcus haemolyticus (GC 4546) ([1]; strain GC 4546): >128 µg/mL
